Source: patent publication US6890727B2, “Diagnostic assay for Alzheimer's disease: assessment of Aβ abnormalities” (The General Hospital Corporation, priority 1994, dated 2005)
Like-named read-outs stand apart in the source and are kept apart here. Blank lines part the entries; values can stand above or below the substance they belong to.

Tests used:
[1] = 65Zn2+ binding to immobilized peptide (dot-blot, Scatchard competition analysis)
Protocol: ^65Zn^2+ Binding Studies—Dissolved peptides (1.2 nMol, unless other wise stated) were dot-blotted onto polyvinylidene difluoride membrane (0.2-μm pore size; Pierce Chemical Co.), washed twice with chelating buffer (200 μl×100 mM NaCl, 20 mM Tris-HCl, 1 mM EDTA, pH 7.4), then five times with blocking buffer (200 μl×100 mM NaCl, 20 mM Tris-HCl, 1 mM MnCl2, pH 7.4), and then incubated (60 min, 20° C.) with ^65Zn (unless otherwise stated 130,000 cpm, […] ^65ZnCl2 in 200 μl of blocking buffer±competing metal ion chloride). The dot-blot was then washed with blocking buffer (5×200 μl), the dot excised, placed in a test tube, and assayed by γ-counting (11% efficiency). The equilibration volume for stoichiometry estimates was regarded as 6×200 μl. The 214 nm UV absorbance of the unbound flow-through was assayed to determine the total amount of peptide remaining bound onto the membrane. […] To alter the pH, the ^65Zn incubation was carried out in the presence of 100 mM buffer: MOPS (pH 6.5-7.0), MES (pH 5.0-6.0), acetate (pH 3.5-4.5). The dot-blot apparatus was washed with detergent and EDTA (50 mM) then rinsed and siliconized between use.
Aliquots of Aβ were incubated (60 min) with ^65Zn^2+ in the presence of varying concentrations of unlabeled Zn^2+ (0.01-50 μM total). Values shown are means±S.D., n≧3. […] (FIG. 1b) depicts specificity of the Zn^2+ binding site for various metals. Aβ was incubated (60 min) with ^65 Zn^2+ (157 nM, 138,000 cpm) and competing unlabeled metal ions (50 μM total). […] Percent binding of total counts ^65Zn^2+/min added is corrected for the amounts (in nanomoles) of peptides adhering to the membrane. […] 157 nM ^65Zn (138,000 cpm) is used in this experiment to probe immobilized peptide (1.6 nmol).

[2] = Aβ incubation with column components, UV absorption before and after; type: physicochemical
Protocol: To determine the part of the column onto which Aβ was precipitating, Aβ solutions were incubated with various column components and assayed by UV absorption before and after incubation. Replicating the chromatography experimental conditions, Aβ (100 μM in equilibration buffer) was incubated for 1 h in plastic reaction vessels with or without the presence of Sephadex.

[3] = Aβ binding to kaolin (aluminum silicate); type: physicochemical
Protocol: Aβ Binding to Kaolin (Aluminum Silicate)—Kaolin suspension was prepared in high performance liquid chromatography water (Fisher), defined, and adjusted to 50% (v/v). Aβ (40 μg) was incubated in siliconized reaction vessels with either kaolin or Sephadex G50 SF (10 μl×50% (v/v)) in Cu^2+, Zn^2+, or EDTA (100 μl in TBS, 5 min, room temperature). The suspension was then pelleted (1500×g, 3 min) and the supernatant removed and diluted 20-fold with water to bring the UV absorbance readings into the linear range. Samples were assayed at 214 nm before and after incubation with kaolin or Sephadex.
(FIG. 3a) depicts concentration (by 214 nm absorbance) of Aβ remaining in supernatant after incubation with 10 mg of G50 Sephadex. (FIG. 3b) depicts concentration (by 214 nm absorbance) of Aβ remaining in supernatant after incubation with 10 mg of kaolin, expressed as percent of the starting absorbance.

trypsin = assay: Tryptic digestion of Aβ after incubation with Zn2+; type: biochemical; details: increasing zinc concentrations
Protocol: Tryptic Digestion of Aβ-Aβ1-40 (13.9 μg) was incubated with Zn^2+ ([…] in blocking buffer, 1 h, 37° C.) and then digested with trypsin (12 ng, 3 h, 37° C.). The reaction was stopped by adding SDS sample buffer containing phenylmethylsulfonyl fluoride (1 mM), boiling the samples (5 min), and applying the samples to Tris/Tricine gel electrophoresis and transfer. The blot was washed with EDTA, Coomassie-stained, incubated with ^65Zn^2+, individual bands were excised, assayed for ^65Zn^2+ binding, and N-terminal sequenced to confirm the identity of the digestion products. The effects of Zn^2+ (up to 100 μM in TBS) on the activity of trypsin, itself, were assayed by assay of Z-Arg-amido-4-methylcoumarin (Sigma) fluorescent cleavage product and determined to be negligible.
(FIG. 4a) depicts a blot of tryptic digests of Aβ (13.9 μg) after incubation with increasing concentrations of zinc (lane labels, in micromolar), stained by Coomassie Blue. […] The migration of the low molecular size markers (STD) are indicated (in kilodaltons) on the right. (FIG. 4b) depicts ^65Zn^2+ binding to Aβ tryptic digestion products. The blot in 4a was incubated with ^65Zn^2+, the visible bands excised, and the bound counts for each band determined.

[4] = Zinc-induced tinctorial amyloid formation (Congo Red, polarized light); type: physicochemical
Protocol: FIGS. 8a and 8b are photographs showing zinc-induced tinctorial amyloid formation. […] The particle diameter is 40μ. […] The experiment was repeated with EDTA (50 μM) substituted for Zn^2+ and yielded no visible material.
The particle diameter is 40μ. […] The experiment was repeated with EDTA (50 μM) substituted for Zn^2+ and yielded no visible material.

[5] = not given; remark: listed apart in the source
[6] = 65Zn2+ binding to immobilized peptide (dot-blot, Scatchard competition analysis); details: 1 min
[7] = 20 μM in PBS, cited from earlier work
[8] = centrifugation studies; cited from earlier work
[9] = neutral pH; cited from earlier work

time at which ^65Zn^2+ binding plateaued [1]: 1 h
^65Zn^2+ binding at lower pH ([1]; pH 6.0): 30 % of Bmax
^65Zn^2+ binding at 1 min [6]: 60 % Bmax
Substance: Aβ1-40: synthetic peptide representing secreted human Aβ1-40, 4.3 kDa, main component of Alzheimer cerebral amyloid
binding to Sephadex ([2]; Aβ 100 μM, 1 h): < 1%
loss to siliconized plastic ([2]; Aβ 100 μM, 1 h): < 1%
adsorption in borosilicate glass test tubes ([2]; without zinc): 20%
adsorption in borosilicate glass test tubes ([2]; zinc 25 μM): 35%
reversibility of binding to kaolin ([3]; 10 mM EDTA): not reversible
precipitation of the peptide by kaolin ([3]; Aβ 0.4 mg/ml, kaolin 5% v/v, 5 min, room temperature): up to 87%
effect of zinc on rate of tryptic digestion of the peptide (trypsin): is inhibited by the presence of zinc
Zn^2+ concentration inducing amyloid by tinctorial criteria ([4]; Congo Red): 3 µM
particle diameter of zinc-induced precipitate ([4]; peptide 25 μM, Zn^2+ 25 μM, 30 minutes, 37° C.): 40 μ
>0.2μ particle assembly following incubation with EDTA (EDTA): 10-20%
near-instantaneous aggregation into >0.2μ particles (EDTA buffer, peptide 1.6 μM): 20%
peptide aggregated into >0.2μ particles (EDTA, higher peptide concentrations): ≈ 15%
peptide aggregated into >0.2μ particles (EDTA, peptide 0.8 μM): no detectable aggregation
peptide aggregated into >0.2μ particles (Zn^2+ 25 μM, 30 minutes, various peptide concentrations): up to 80%
peptide aggregated into >0.2μ particles (Zn^2+ 25 μM, peptide 0.8 μM): > 70%
particle assembly rate of second phase (Zn^2+ 25 μM, peptide 1.6 μM): 3.2 nM/min
time to steady state of the second phase (Zn^2+ 25 μM, peptide 1.6 μM): ≤ 2 min
half-maximal assembly rate of initial phase (Zn^2+ 25 μM, peptide 1.6 μM, pH 7.4): ≈ 0.4 μM/min
time until available peptide is exhausted (at second-phase rate): within five hours
peptide that would aggregate into >0.2μ particles, extrapolated (curve of FIG. 6A extrapolated to 0.6 nM peptide, Zn^2+ 25 μM): 25%
peptide recovered when retained aggregates are washed with EDTA ([5]; >0.65 aggregates, EDTA 50 μM): 22%
proportion of particles >0.1μ ([5]; EDTA, peptide 1.6 μM): 47%
proportion of particles >0.22μ ([5]; EDTA, peptide 1.6 μM): 40%
proportion of particles >0.65μ ([5]; EDTA, peptide 1.6 μM): 32%
increase of proportion of >0.1μ particles following incubation with Zn^2+ ([5]; Zn^2+ 25 μM vs EDTA): 50%
increase of proportion of >0.22μ particles following incubation with Zn^2+ ([5]; Zn^2+ 25 μM vs EDTA): 55%
proportion of particles >0.65μ ([5]; Zn^2+ 25 μM, peptide 1.6 μM): 82%
additional ≦0.22μ peptide resolubilized by EDTA treatment ([5]; compared with >0.65 aggregates): 7%
time stable in solution ([7]; pH 7.4): 10 days
time to half-maximal aggregation ([7]; seeded with Aβ1-42 (2 μM)): 4 to 5 days

Substance: ^125I-human Aβ1-40: human Aβ1-40 iodinated on the tyrosine residue at position 10, tracer
Zn^2+ concentration required to precipitate [8]: 1 mM

Substance: insulin: insulin, literature comparison for zinc binding
stoichiometric ratio Zn^2+:insulin in excess of which the peptide precipitates [9]: > 0.33
